Experimental data as given in patent US11208396B2, “Oxime compounds as agonists of the muscarinic M1 and/or M4 receptor” (Heptares Therapeutics Limited, priority 2015, dated 2021).

Experiments:
Assay type in all cases: cell-based
[1] = target: T1, human muscarinic M3 receptor (Homo sapiens, UniProt P20309); assay: Alphascreen Surefire phospho-ERK1/2 functional assay, M3; settings: for EC50 / % Emax cf. ACh, M3 / pEC50 M3: CHO cells stably expressing human M3; for EC50 / pEC50 M3: agonist 5 min, 37° C.; for EC50: read-out: pEC50 M3 (converted); for Emax: CHO, read-out: % Emax cf. ACh, M3, CHO cells stably expressing human M3; for Emax / % Emax cf. ACh, M3: Emax compared with ACh
T1 construct: expressed in transfected cells
Method: (§1) ERK1/2 phosphorylation is a downstream consequence of both Gq/11 and Gi/o protein coupled receptor activation, making it highly suitable for the assessment of M1, M3 (Gq/11 coupled) and M2, M4 receptors (Gi/o coupled), rather than using different assay formats for different receptor subtypes. CHO cells stably expressing the human muscarinic M1, M2, M3 or M4 receptor were plated (25K/well) onto 96-well tissue culture plates in MEM-alpha+10% dialysed FBS. Once adhered, cells were serum-starved overnight. Agonist stimulation was performed by the addition of 5 μL agonist to the cells for 5 min (37° C.). Media was removed and 50 μL of lysis buffer added. After 15 min, a 4 μL sample was transferred to 384-well plate and 7 μL of detection mixture added. Plates were incubated for 2 h with gentle agitation in the dark and then read on a PHERAstar plate reader.
(§2) pEC50 and Emax figures were calculated from the resulting data for each receptor subtype.

[2] = target: T2, human muscarinic M1 receptor (Homo sapiens, UniProt P11229); assay: Alphascreen Surefire phospho-ERK1/2 functional assay, M1; settings: for EC50 / % Emax cf. ACh, M1 / pEC50 M1: CHO cells stably expressing human M1; for EC50 / pEC50 M1: agonist 5 min, 37° C.; for EC50: read-out: pEC50 M1 (converted); for Emax: CHO, read-out: % Emax cf. ACh, M1, CHO cells stably expressing human M1; for Emax / % Emax cf. ACh, M1: Emax compared with ACh
T2 sequence (P11229 1-460): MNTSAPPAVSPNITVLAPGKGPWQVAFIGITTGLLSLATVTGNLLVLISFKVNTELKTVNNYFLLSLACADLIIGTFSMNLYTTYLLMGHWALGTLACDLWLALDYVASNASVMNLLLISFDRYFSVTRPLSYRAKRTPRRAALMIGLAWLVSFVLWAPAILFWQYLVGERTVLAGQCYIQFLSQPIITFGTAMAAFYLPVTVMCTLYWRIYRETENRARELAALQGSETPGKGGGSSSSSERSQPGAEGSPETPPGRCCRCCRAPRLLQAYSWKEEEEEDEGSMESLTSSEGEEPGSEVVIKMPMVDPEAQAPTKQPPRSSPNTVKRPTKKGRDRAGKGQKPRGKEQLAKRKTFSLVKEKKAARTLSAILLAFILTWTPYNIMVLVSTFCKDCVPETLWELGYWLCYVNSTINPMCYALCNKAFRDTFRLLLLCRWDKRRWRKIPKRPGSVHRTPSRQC
Method: as §1, §2

[3] = target: T3, human muscarinic M2 receptor (Homo sapiens, UniProt P08172); assay: Alphascreen Surefire phospho-ERK1/2 functional assay, M2; settings: for EC50 / % Emax cf. ACh, M2 / pEC50 M2: CHO cells stably expressing human M2; for EC50 / pEC50 M2: agonist 5 min, 37° C.; for EC50: read-out: pEC50 M2 (converted); for Emax: CHO, read-out: % Emax cf. ACh, M2, CHO cells stably expressing human M2; for Emax / % Emax cf. ACh, M2: Emax compared with ACh
T3 sequence (P08172 1-466): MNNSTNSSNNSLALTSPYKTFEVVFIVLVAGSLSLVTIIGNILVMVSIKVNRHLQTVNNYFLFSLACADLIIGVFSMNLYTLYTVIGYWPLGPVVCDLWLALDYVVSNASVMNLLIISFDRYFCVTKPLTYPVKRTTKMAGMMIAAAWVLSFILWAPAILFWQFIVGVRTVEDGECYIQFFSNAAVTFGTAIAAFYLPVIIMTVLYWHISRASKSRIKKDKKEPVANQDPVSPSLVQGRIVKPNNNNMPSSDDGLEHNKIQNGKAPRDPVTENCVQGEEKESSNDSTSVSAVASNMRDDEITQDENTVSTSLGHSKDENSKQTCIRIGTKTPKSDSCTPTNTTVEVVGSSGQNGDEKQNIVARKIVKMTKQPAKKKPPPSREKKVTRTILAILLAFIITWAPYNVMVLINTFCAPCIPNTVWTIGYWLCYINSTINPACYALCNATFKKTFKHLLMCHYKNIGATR
Method: as §1, §2

[4] = target: T4, human muscarinic M4 receptor (Homo sapiens, UniProt P08173); assay: Alphascreen Surefire phospho-ERK1/2 functional assay, M4; settings: for EC50: read-out: pEC50 M4 (converted); for Emax: CHO, read-out: % Emax cf. ACh, M4, CHO cells stably expressing human M4; for Emax / % Emax cf. ACh, M4: Emax compared with ACh
T4 construct: expressed in transfected cells
T4 sequence (P08173 1-479): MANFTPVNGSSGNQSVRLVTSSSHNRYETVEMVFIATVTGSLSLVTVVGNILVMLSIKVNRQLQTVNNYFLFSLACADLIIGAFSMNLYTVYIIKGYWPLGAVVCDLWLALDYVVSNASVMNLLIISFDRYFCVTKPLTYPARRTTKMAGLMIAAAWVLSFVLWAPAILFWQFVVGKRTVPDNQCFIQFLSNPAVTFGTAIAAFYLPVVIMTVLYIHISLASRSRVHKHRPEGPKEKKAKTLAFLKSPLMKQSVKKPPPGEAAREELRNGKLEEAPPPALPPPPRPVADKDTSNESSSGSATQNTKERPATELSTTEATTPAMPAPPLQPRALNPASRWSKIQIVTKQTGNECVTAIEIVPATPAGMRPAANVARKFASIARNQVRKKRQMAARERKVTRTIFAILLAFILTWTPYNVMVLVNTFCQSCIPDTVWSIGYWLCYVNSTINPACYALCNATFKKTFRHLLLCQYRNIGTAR
Method: as §1, §2

[5] = CHO cells stably expressing human M4, agonist 5 min, 37° C.
[6] = CHO cells stably expressing human M4

T1 sequence (P20309 whole entry): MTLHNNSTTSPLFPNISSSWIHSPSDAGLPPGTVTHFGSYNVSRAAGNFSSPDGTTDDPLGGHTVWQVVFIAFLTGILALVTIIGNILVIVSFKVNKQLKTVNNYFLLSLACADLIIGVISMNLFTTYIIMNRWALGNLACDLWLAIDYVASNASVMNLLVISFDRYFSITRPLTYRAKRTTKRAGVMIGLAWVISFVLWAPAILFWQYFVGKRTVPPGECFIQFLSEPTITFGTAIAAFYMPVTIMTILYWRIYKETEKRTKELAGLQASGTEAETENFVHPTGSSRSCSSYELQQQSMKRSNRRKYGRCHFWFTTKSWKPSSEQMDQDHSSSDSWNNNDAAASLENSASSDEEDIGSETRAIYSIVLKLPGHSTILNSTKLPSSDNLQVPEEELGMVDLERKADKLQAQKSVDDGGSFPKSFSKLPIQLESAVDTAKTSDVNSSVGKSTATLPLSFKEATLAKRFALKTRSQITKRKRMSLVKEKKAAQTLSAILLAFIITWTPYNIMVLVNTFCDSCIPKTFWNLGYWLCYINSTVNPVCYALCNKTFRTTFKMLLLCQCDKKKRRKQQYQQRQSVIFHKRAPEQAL

Compound | EC50 [1] | Emax [1] | EC50 [2] | Emax [2] | EC50 [3] | Emax [3] | EC50 [4, 5] | Emax [4] | % Emax cf. ACh, M3 [1] | % Emax cf. ACh, M1 [2] | % Emax cf. ACh, M2 [3] | pEC50 M3 [1] | pEC50 M2 [3] | % Emax cf. ACh, M4 [4, 6] | pEC50 M1 [2] | pEC50 M4 [4, 5]
CCCC(=NOC)C1CCN(C2CC3(CCN(C(=O)OCC)C3)C2)CC1 (mixture of isomers) [2-3 Mixture of two isomers] | > 20000 nM | 5% | > 20000 nM | 22% | > 20000 nM | 7% | 20 nM | 93% |  |  |  |  |  |  |  | 
CCOC(=O)N1CCCC(N2CCC(C(C#N)=NOC(C)C)CC2)CC1 (mixture of isomers) [4-1 Mixture of isomers] | > 20000 nM | 5% | 100 nM | 109% | > 20000 nM | 4% | 79.4 nM | 72% |  |  |  |  |  |  |  | 
CCOC(=O)N1CCCC(N2CCC(C(=NOC)NCC(C)C)CC2)CC1 (racemic) [3-1 Mixture of isomers] |  |  | 251 nM | 136% |  |  | 398 nM | 56% |  |  |  |  |  |  |  | 
CCOC(=O)N1CCCC(N2CCC(C(C)=NOC)CC2)CC1 (single isomer, unassigned) [1-1 Isomer 2 (racemic)] | > 20000 nM | 1% | 1580 nM | 54% | > 20000 nM | 4% | 126 nM | 71% |  |  |  |  |  |  |  | 
CCOC(=O)N1CCCC(N2CCC(C(CC)=NOC)CC2)CC1 (single isomer, unassigned) [1-2 Isomer 1 (racemic)] | > 20000 nM |  | 501 nM |  | > 20000 nM |  | 79.4 nM | 99% | 37% | 58% | 2% |  |  |  |  | 
CCOC(=O)N1CCCC(N2CCC(C(CC)=NOC)CC2)CC1 (single isomer, unassigned) [1-2 Isomer 2 (racemic)] |  |  | 398 nM |  |  |  | 25.1 nM |  | 1% | 83% | 7% | < 4.7 | < 4.7 | 94% |  | 
CCCC(=NOC)C1CCN(C2CCCN(C(=O)OCC)CC2)CC1 (single isomer, unassigned) [1-3 Isomer 1 (racemic)] |  |  | 316 nM | 106% |  |  | 25.1 nM | 85% |  |  |  |  |  |  |  | 
CCCC(=NOC)C1CCN(C2CCCN(C(=O)OCC)CC2)CC1 (single isomer, unassigned) [1-3 Isomer 2 (racemic)] | > 20000 nM | 17% | 63.1 nM |  | > 20000 nM | 21% | 50.1 nM |  |  | 92% |  |  |  | 83% |  | 
CCOC(=O)N1CCCC(N2CCC(C(=NOC)C(C)C)CC2)CC1 (single isomer, unassigned) [1-4 Isomer 1 (racemic)] | > 20000 nM | 5% | 398 nM | 87% | > 20000 nM |  | 50.1 nM | 115% |  |  | 24% |  |  |  |  | 
CCOC(=O)N1CCCC(N2CCC(C(=NOC)C(C)C)CC2)CC1 (single isomer, unassigned) [1-4 Isomer 2 (racemic)] | > 15800 nM |  | 316 nM |  | > 15800 nM |  | 31.6 nM |  | 6% | 95% | 7% |  |  | 107% |  | 
CCOC(=O)N1CCCC(N2CCC(C(=NOC)C(C)C)CC2)CC1 (single isomer, unassigned) [1-5 Isomer 2 (racemic)] |  |  |  |  |  |  |  |  | 4% | 105% | 22% | < 4.7 | < 4.7 | 104% | 6.5 | 7.5
CCOC(=O)N1CCCC(N2CCC(C(CCC(C)C)=NOC)CC2)CC1 (single isomer, unassigned) [1-6 Isomer 2 (racemic)] | > 20000 nM | 16% | 39.8 nM | 96% | > 20000 nM | 10% | 126 nM | 65% |  |  |  |  |  |  |  | 
CCON=C(C)C1CCN(C2CCCN(C(=O)OCC)CC2)CC1 (single isomer, unassigned) [1-7 Isomer 1 (racemic)] |  |  | 631 nM | 48% |  |  | 631 nM | 52% |  |  |  |  |  |  |  | 
CCON=C(C)C1CCN(C2CCCN(C(=O)OCC)CC2)CC1 (single isomer, unassigned) [1-7 Isomer 2 (racemic)] |  |  | 501 nM |  |  |  | 251 nM |  |  | 66% |  |  |  | 62% |  | 
CCCON=C(C)C1CCN(C2CCCN(C(=O)OCC)CC2)CC1 (single isomer, unassigned) [1-8 Isomer 1 (racemic)] |  |  | 794 nM | 65% |  |  | 794 nM | 46% |  |  |  |  |  |  |  | 
CCCON=C(C)C1CCN(C2CCCN(C(=O)OCC)CC2)CC1 (single isomer, unassigned) [1-8 Isomer 2 (racemic)] |  |  | 316 nM |  |  |  | 316 nM |  |  | 85% |  |  |  | 50% |  | 
CCOC(=O)N1CCCC(N2CCC(C(C)=NOC(C)C)CC2)CC1 (single isomer, unassigned) [1-9 Isomer 1 (racemic)] |  |  | 631 nM | 57% |  |  | > 20000 nM |  |  |  |  |  |  | 0% |  | 
CCOC(=O)N1CCCC(N2CCC(C(C)=NOC(C)C)CC2)CC1 (single isomer, unassigned) [1-9 Isomer 2 (racemic)] |  |  |  |  |  |  | 398 nM |  |  | 46% |  |  |  | 81% | 6.2 | 
CCCON=C(CC)C1CCN(C2CCCN(C(=O)OCC)CC2)CC1 (single isomer, unassigned) [1-11 Isomer 1 (racemic)] |  |  | 251 nM | 107% |  |  | 126 nM |  |  |  |  |  |  | 72% |  | 
CCCON=C(CC)C1CCN(C2CCCN(C(=O)OCC)CC2)CC1 (single isomer, unassigned) [1-11 Isomer 2 (racemic)] | > 20000 nM | 6% | 158 nM |  | > 20000 nM | 19% | 63.1 nM |  |  | 99% |  |  |  | 97% |  | 
CCOC(=O)N1CCC[C@H](N2CCC(C(C)=NOC)CC2)CC1 (single isomer, unassigned) [(S)-1-1 Isomer 1] |  |  | 631 nM | 47% |  |  | 200 nM |  |  |  |  |  |  | 31% |  | 
